Results from patent US6451857B1, “Analgesic compositions comprising anti-epileptic compounds and methods of using same” (Warner-Lambert Company, priority 1999, dated 2002).

Tested on: carrageenan-induced thermal hyperalgesia
Test: Carrageenan rat footpad thermal hyperalgesia test (Hargreaves test)
Assay type: in vivo
From the text: The aim of this experiment was to characterize the antinociceptive and anti-inflammatory effects of gabapentin administered in combination with a prototypic NSAID in the rat. […] This assay utilizes an extract of seaweed (carrageenan) that, when injected into the footpad of test animals, causes a sterile inflammation, thereby lowering the pain threshold.
Male Sprague-Dawley rats (200-250 g, Sasco Laboratories) were used. Rats were group housed 5/cage on a 12-hour light:dark cycle with free access to food and water. Rats received only one dose of a drug or drug combination. All drugs were administered orally by gavage.
Dose-effect curves were first determined for (1) gabapentin by itself and (2) a prototypic NSAID (e.g., naproxen) by itself. The ED50 value and 95% confidence limits of each agent was determined, as was the time to peak effect. […]
Carrageenan-induced thermal hyperalpesia: Rats were acclimated to a testing chamber whose glass floor was maintained at 25° C. Thirty minutes later, a high intensity beam of light was focused through the glass on the ventral surface of each hindpaw, and the latency to reflex withdrawal of the paw from the light beam was measured to the nearest 0.1 second. […] Response latencies for the ipsilateral and contralateral hindpaws were then re-determined 15, 30, 45, 60, 90 and 120 minutes later. […]
Data were expressed as the mean ±SEM. […]

COc1ccc2cc([C@H](C)C(=O)O)ccc2c1 [Naproxen sodium, naproxen sodium]
anti-hyperalgesic action (PO, gabapentin 3-100 mg/kg, naproxen sodium 0.3-30 mg/kg, combinations in fixed ratio): caused anti-hyperalgesic actions
ED50 (Rattus norvegicus, 2 h, single drug, oral gavage, male Sprague-Dawley rats, data 120 min after dosing, 95% confidence limits in parentheses): 0.36 mg/kg
